According to patent publication US20260315564A1, “THE USE OF TP3 (THYMOPENTIN ANALOG) BY INCREASING THE ACTIVITY AND NUMBER OF T-CELLS INVOLVED IN THE DEFENSE MECHANISM OF THE IMMUNE SYSTEM OF MAMMALS, FOR THE PREVENTION OR TREATMENT OF DISEASES TO EXTEND THE AVERAGE LIFESPAN” (priority 2023, published 2026):
Marks after values point to notes of the source that are not given here. Residues, ends and D or L forms follow the SMILES beside them.

Columns and labels:
[1] = test system: Anti-BVVT-Ab (IgM); assay: Anti-BVVT-Ab titers (IgM) in newborn rats after single treatment (hemagglutination); format: in vivo, Hannover Wistar rats (newborn); details: 1x/ip, n = 12, control 6.3 (TP5), 5.2 (TP3)
Experimental: Rats (Hannover Wistar) were treated (i.p.) within 6-12 hours after birth. Treatments after birth in a single session or in another examination • on the 7th day after the first treatment; • another group was vaccinated 3 times a week after the first day of […]. treatment • in a subsequent group treated over three weeks (9× in total) (10-3,10-5,10-7//10-9, 10-11,10-12, 10-13 M/animal, i.p). • in the fourth test series, the animals were treated with TP fragments at 0, 1, 2, 4, or 5 days of age. The rats were unanimously immunized on the 14th day after birth (1% BVVT with 0.5 ml cell suspension, i.p.). Immune responses were measured after 7 days on day 21 of the experiment.
Rats (Hannover Wistar) were treated (i.p.) within 6-12 hours after birth. Treatments after birth in a single session or in another examination • on the 7th day after the first treatment; • another group was vaccinated 3 times a week after the first day of treatment. • in a subsequent group, the treatments took place over three weeks (9× in total) (10-3,10-5,10-7//10-9, 10-11,10-12,10-13 M/animal, i.p.). • in the fourth test series, the animals were treated with TP fragments at 0, 1, 2, 4, or 5 days of age. The rats were randomly immunized on the 14th day after birth (1% BVVT with 0.5 ml cell suspension, i.p.). Immune responses were measured after 7 days on day 21 of the experiment. 1.2. Determination of anti-BVVT Ab titers (from rat blood samples ex vivo) • with the haemagglutination method (Takátsy and Fürész, 1955) on 96-well plates (Flow). 50 ul of 0.9% NaCl solution was added to each well. The sera (50 μl) were diluted by half dilution in 12 steps, mixed with 25 pμl 2% BVVT cell suspension, and incubated (1 hour at 37 °C). The hemagglutination titers of the sera are determined. Values expressed in logarithmic values refer to total agglutination.

[2] = test system: Thy 1+, Lyt 1+, Lyt 2+ spleen cells; assay: Spleen cell subpopulations (Thy 1, Lyt 1, Lyt 2) in adult thymus-removed (Tx) mice; format: in vivo, C57BL mice (adult thymectomized); details: male, 1.0 mg/kg/ip, n = 8/group
Experimental: (§1) • D.1/Direct cytotoxicity test/for the detection of Thy, Lyt antigens (Fathman 1979, in Immunol Meth I. Eds. Lefkovits, Pernis, Acad Press, New York, pp. 212-213.) was used. Subpopulation ratios were determined from bone marrow cells, thymus, and spleen cells isolated from the lymphatic organs of mice. The cell suspensions (1.087-1.088 g/cm3) were centrifuged ona density gradient (2000 rpm, 20 minutes), and the cells were washed 3× with RPMI1640 medium containing 0.3% BSA, then adjusted to 107/ml. Thyl, Lyt 1, Lyt2 monoclonal antibodies (McAb/Ando I. (ICRF Human Tumor Immunol. UCM Med Sch. London) were obtained. 25 μl McAb and 25 ul cell suspension were incubated (60′, 40C1), after centrifugation (1250 rpm 10′), the cells were resuspended with 40 μul of diluted (1:50) rabbit complement, then incubated (370C, 60′). The cell suspensions were stained with 1:5 dilution of Eosin Y (Jansen). the ratio of live to non-living cells was determined.
After thymectomy, mice were treated with doses of 1 mg/kg, i.p. once a week for six weeks. Thy 1+, Lyt1+, and Lyt2+ in the spleen cells of mice at the age of 13 weeks cell proportions were determined based on what was previously described.

[3] = test system: antibody production (IgM); assay: Antibody production (IgM) in aged mice; format: in vivo, aged mice (Balb/c); details: second value column under head 'PFC IgM/logx^2'; aged mice 18 months old; n = 8/group; young control 84.1, aged 41.0
[4] = test system: Thy1+ cells in the spleens; assay: Number of Thy1+ cells in spleens of Balb/c nu/nu mice after TP-fragment treatment; format: in vivo; details: ip, n = 8/group, control 5.4
Experimental: as §1
Mice were treated for 4 weeks 3 times a week (every other day) with TP fragments (10-9, 10-8, 10-7//10-3, 10-2, 10-1 M/animal ip. (Veys et al., 1983) at the end of the treatments ([…]), the mice were immunized (with 0.5 ml 1% BVVT suspension ip. The immune response was expressed in antibody titers as above).
Effects of inducing renewal of the immune system and increasing activity in Balb/c nude mice The nude mouse is genetically deficient in the thymus. The […] atrophies over time after hormonal follow-up in mice and humans. As a result, the strength of the lymphoid, and within that of the T cells, decreases. All this means a definitive decrease in antigen recognition capacity. The increasing number and activity of immune cells in the thymus of nude mice is increasing health and quality of life span.
The number of Thy1+ cells in the spleens of Balb/c nu/nu mice after TP-fragment treatment (Thy 1+ marker-bearing cells in mice correspond to human lymphocytes)

## CC(C)[C@H](NC(=O)[C@H](CC(=O)O)NC(=O)[C@H](CCCCN)NC(=O)[C@@H](N)CCCN=C(N)N)C(=O)N[C@@H](Cc1ccc(O)cc1)C(=O)O [TP5] (H-RKDVY-OH)
[1]; 10^-3 M/animal
  Anti-BVVT-Ab titers (IgM): 7.6 2 log
[1]; 10^-4 M/animal
  Anti-BVVT-Ab titers (IgM): 8.1* 2 log
[1]; 10^-5 M/animal
  Anti-BVVT-Ab titers (IgM): 8.6* 2 log
[1]; 10^-6 M/animal
  Anti-BVVT-Ab titers (IgM): 8.5* 2 log
[1]; 10^-9 M/animal
  Anti-BVVT-Ab titers (IgM): 8.0* 2 log
[1]; 10^-11 M/animal
  Anti-BVVT-Ab titers (IgM): 7.7 2 log
[1]; 10^-13 M/animal
  Anti-BVVT-Ab titers (IgM): 7.0 2 log
[2]; control 1.77, Tx 1.96
  Lyt1/Lyt2: 1.63
[2]; control 13.7, Tx 9.6
  Lyt 2 spleen cells: 14.2* %
[2]; control 24.3, Tx 18.8
  Lyt 1 spleen cells: 23.2* %
[2]; control 30.1, Tx 8.1
  Thy 1 spleen cells: 21.2%
[3]
  IgM/logx^2: 44.7 logx^2
[4]; 10^-1 M/mice
  number of Thy1+ cells in spleen: 131*
[4]; 10^-2 M/mice
  number of Thy1+ cells in spleen: 129**
[4]; 10^-3 M/mice
  number of Thy1+ cells in spleen: 94*
[4]; 10^-7 M/mice
  number of Thy1+ cells in spleen: 125**
[4]; 10^-8 M/mice
  number of Thy1+ cells in spleen: 79*
[4]; 10^-9 M/mice
  number of Thy1+ cells in spleen: 9.5
